Measured values taken from paper PMC5651845, “A New Generation of Arachidonic Acid Analogues as Potential Neurological Agent Targeting Cytosolic Phospholipase A2” (Scientific Reports, 2017).

Molecular target: T1, sPLA2, human recombinant type V (Homo sapiens, UniProt P39877)
T1 construct: purchased Cayman Chemical 10009563
T1 sequence (P39877 21-138): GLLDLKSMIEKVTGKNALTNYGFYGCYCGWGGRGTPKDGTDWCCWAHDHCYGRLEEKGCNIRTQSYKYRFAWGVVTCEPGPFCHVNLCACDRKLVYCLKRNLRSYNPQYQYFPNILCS
Assay: EnzChek phospholipase A2 fluorogenic assay (selectivity) with sPLA2
Format: biochemical
Settings: 10 μM, relative to DMSO control
Procedure: To further explore their selectivity towards cPLA2, 10 μM of 2g and 2i were evaluated for their inhibition against recombinant sPLA2 using the fluorogenic PLA2 assay (Fig. 3C).
The assay was conducted as described above. Instead of adding cPLA2, it was replaced by sPLA2. 48 μL of 1X phospholipase A2 reaction buffer was added into each well of a 96-wells plate. This was followed by addition of 1 μL of sPLA2, human recombinant type V (10009563, Cayman Chemical) and 1 μL of 1 mM of the respective compound or thioetheramide-PC (62750, Cayman Chemical) dissolved in DMSO. The final concentration of the test compound achieved is 10 μM. The reaction was initiated by adding 50 μL of the substrate solution and incubating at room temperature for 1 h. Fluorescence was measured using a Varioskan plate reader by exciting at 485 nm, while fluorescence emission was detected at 515 nm. Positive control was performed when 1 μL of test compound was replaced by vehicle DMSO. % activity was expressed as the mean value of duplicate wells from four experiments. % activity was calculated by the following formula:2 %activity=fluorescenceoftestedwell−background/fluorescenceofpostivecontrol−background

CCCCC/C=C\C/C=C\C/C=C\C/C=C\CCCCC(=O)Nc1cccc(C(=O)O)c1 [2i]
sPLA2 activity: did not provide a significant change in sPLA2 activity
